The values that follow come from patent US20080063601A1, “Compositions and methods relating to polycystic kidney disease” (priority 2004, published 2008).

Each structure is given as a SMILES string.

Assay [1] has as its system HeLa cells. Kind of assay: [3H]-triptolide competition binding in intact HeLa cells. Particulars: for displacement of / competition for [3H]-triptolide binding: 1 or 10 μM unlabeled competitor for 1 h before approx. 30 nM [3H]-triptolide for 1 h. On the procedure:
To gain insight into triptolide's mechanism of action Applicant sought to determine its specific binding activity utilizing a system employing [^3H]-triptolide. In addition to competition with 1 μM or 10 μM unlabeled triptolide, Applicant also measured the binding affinities of triptolide analogs (FIG. 3A). These analogs have been previously described and differ structurally from triptolide in the hydrolysis of the 12,13 epoxide (2), and formation of the ketone at the C-14 hydroxyl (3) (FIG. 3A). […] The effective interaction of these analogs with a presumed triptolide binding entity led us to their use in subsequent experiments addressing the mode of triptolide's biological functions.
Labeling studies were performed by the addition of approximately 30 nM [^3H]-triptolide directly into the culture media for one hour at 37° C. For cold competition studies, 1 μM triptolide was incubated with the cells for one hour before or after the addition of [^3H]-triptolide. Triptolide analog studies followed a similar protocol where concentrations used for competition were either 1 or 10 μM added before [^3H]-triptolide. Medium was removed and cells were washed 3× in cold PBS. Total cell lysates were prepared (150 mM NaCl, 50 mM Tris-HCl pH 7.4, 1 mM EDTA, 1% Triton X-100, and Complete™ protease inhibitors (Roche)) and protein was quantitated before measuring the [^3H]-triptolide binding activity via liquid scintillation.

Assay [2] concerns HeLa cells. The experiment in a line: HeLa cell viability by trypan blue dye exclusion. The class given is cell-based. As for the experimental part: Since extracellular calcium concentration can influence triptolide binding Applicant sought to determine if the presence of calcium influences the rate of triptolide-mediated apoptosis. To first establish the growth rate of HeLa in media±calcium, cell counts were performed over a 72 hour time course. Although calcium-free media caused cells to detach more easily, the overall growth rates were similar where cell doubling occurred every 24 hours on average (FIG. 5B). For triptolide experiments, cells were initially equilibrated in medium±calcium for 16 hours before the addition of 100 nM triptolide. Cell death was assessed by trypan blue dye exclusion at 24, 48, and 72 hours post drug treatment. In the presence of calcium-containing medium, triptolide induced at least 50% cell death by 24 hours with this trend continuing through later time points (FIG. 5C).
Applicant's results have implicated reversible binding of triptolide to a potential binding protein or complex that can be regulated by calcium. To understand if triptolide function is further separable between cell death and NFκB inhibition, Applicant examined the effect of concentration on these two endpoints. HeLa cells were cultured in the presence of 0, 10, 25, 50, or 100 nM of triptolide and separately assessed for cell death or the ability to suppress NFκB transactivation promoted by TNF-α. Following 24-48 hours of culture, viable cells were recovered and counted. Following 24 hours, triptolide concentrations from 25-100 nM caused greater than 50% of the cells to undergo cell death as assessed by detachment, clumping and the failure to exclude trypan blue dye. […] This is consistent with previous studies showing that low doses of triptolide cause cell cycle arrest rather than apoptosis (Kiviharju, et al., 2002, Clin Cancer Res 8, 2666-2674).
Based upon Applicant's studies examining the concentration dependent effect of triptolide on the two measured biological endpoints, cell death and transcriptional repression, Applicant wanted to determine how modulating triptolide's structure may also discriminate between the two pathways. For cell viability assays, HeLa cells were incubated with 0, 0.1, 1, or 10 μM of each analog or triptolide for 24 hours and then counted using trypan blue dye exclusion. […] NFκB transcriptional inhibition was measured using the κB-luciferase assay as previously described following 5 hours of incubation with each analog (0-10 μM) and TNF-α addition.
HeLa cells were incubated in DMEM or SMEM (Gibco) media+10% FBS and maintained at 37° C. in 5% CO2 for all experiments. HeLa cell viability was assessed by trypan blue dye exclusion, as well as by morphological examination (non-viable cells were rounded and detached from culture plate).

For assay [3], the system named is NFκB transactivation. The experiment in a line: κB-luciferase reporter assay of TNF-α induced NFκB transactivation in HeLa cells. The class given is cell-based. On the procedure: Having established that triptolide induced cell death is dependent upon free calcium concentration, Applicant next determined whether this was also a requirement for the inhibition of NFκB transcription. HeLa cells were transiently transfected with the κB-luciferase reporter construct for 8 hours before being washed and then cultured in the presence or absence of calcium containing medium for 16 hours. Triptolide (100 nM) was pre-incubated with cells for 1 hour before addition of 15 ng/ml of TNF-α for 4 hours.
As an additional experiment, transcriptional activity was also assessed by site-directed calcium buffering. HeLa cells were co-transfected with the κB-luciferase plasmid as well as one of the following constructs: GFP empty vector, NES-PV-GFP, or NLS-PV-GFP and proper GFP localization was confirmed. […]
NFκB transactivation was examined using the κB-luciferase reporter construct. […] Cells were assessed for NFκB driven luciferase expression after an additional five hours of incubation, at which time TNF-α had induced transcriptional activity by approximately 15-fold in control cells. […] The results thus far support a divergence of triptolide-mediated functions: the pathway regulating growth arrest/death is more sensitive to triptolide and calcium than the mechanism leading to transcriptional repression of NFκB.
A triple κB promoter-Luciferase reporter construct was a gift of Sankar Ghosh (Yale University). […] The transfection efficiency of HeLa was determined to be 80-90%, and all samples were normalized to protein concentration. Luciferase assays were performed using the Firefly luciferase kit as per manufacturer's protocol (Promega) and results obtained on the Wallac Victor2 1420 Multilabel Counter (Perkin Elmer).
(In general: Reporter assays use an easily measured gene product as a stand-in for the process of interest.)

Turning to `CC(C)[C@]12O[C@H]1[C@@H]1O[C@@]13[C@@]1(C)CCC4=C(COC4=O)[C@@H]1C[C@@H]1O[C@@]13C2=O` [analog (3), Triptonide], the “competitive ability for [3H]-triptolide binding compared with triptolide” value in assay [1] (1 μM competitor) was “higher competitive ability than triptolide itself”. The “displacement of / competition for [3H]-triptolide binding” value in assay [1] was “near complete”. Also, the “effect on cells at low concentration” value in assay [2] (25 nM) is reported as “only a growth suppressive effect”. Further, the “profile of cell death compared with triptolide” value in assay [2] (0.1-10 μM, 24 hours) is on record as “mimicked triptolide with no significant difference”. Also, the “profile of transcriptional repression (NFκB) compared with triptolide” value in assay [3] (0.1-10 μM, 5 hours) is “mimicked triptolide with no significant difference”.
In the case of `CC(C)C1(O)C(O)C2OC23C2(C)CCC4=C(COC4=O)C2CC2OC23C1O` (stereo not shown) [analog (2), Triol-Triptolide], the “displacement of / competition for [3H]-triptolide binding” value in assay [1] is “efficiently competes”. For the same molecule, the “cell viability versus untreated control” value in assay [2] (0.1 μM, 24 hours) is “not different from the untreated control”. In assay [2] (0.1 μM, out to 72 hours), the “effect on continued cell growth” value is given as “overall growth suppressive effect”. The cell death entry in assay [2] (1 μM, 24 hours) is on record as “greater than 50%”. In addition, in assay [3] (1 μM, 5 hours with TNF-α), the “effect on NFκB transcriptional activity” value is on record as “no effect”.
